Data taken from patent publication US9433683B2, “Reversible pegylated drugs” (Yeda Research and Development Co., Ltd., priority 2003, dated 2016).
Where a SMILES comes first, the peptide text is derived from it.

Key:
physchem = conditions: buffer, pH 8.5
[1] = Solubility in aqueous buffer; type: physicochemical; conditions: pH 7.2, aqueous buffer
[2] = Stability of the maleimide moiety of MAL-FMS-NHS in aqueous solutions (GSH/DTNB); type: physicochemical
Experimental: MAL-FMS-NHS (1 mM) was incubated at room temperature in H2O (pH 6.0), in 0.007 M acetic acid (pH˜4.0), in 0.1 M phosphate buffer (pH 7.4), and in 0.1 M NaHCO3 (pH 8.5). At the indicated time points, aliquots were allowed to react with a slight excess of GSH (15 min at pH 7.2) and the concentration of unreacted GSH was determined with 5,5-dithiobis(2-nitrobenzoic acid) (DTNB).
Stability of the MAL-functional moiety in aqueous solutions. In order to test the stability of the maleimide function of MAL-FMS-NHS in aqueous solutions at different pH values, MAL-FMS-NHS (1 mM) was incubated at room temperature in water (pH 6.0), in 0.007M acetic acid (pH˜4.0), in 0.1M phosphate buffer (pH 7.4), and in 0.1M NaHCO3 (pH 8.5). At several time points, aliquots were allowed to react with a slight excess of reduced glutathione (GSH) (15 min at pH 7.2) and the concentration of unreacted GSH was determined with DTNB (5,5′-dithio-bis-2-nitrobenzoic acid, Ellman's reagent), by measuring the absorbance of the produced yellow colored 5-thio-2-nitrobenzoic acid (TNB) at 405 or 412 nm.

CC[C@H](C)[C@H](NC(=O)[C@H](CCC(=O)O)NC(=O)[C@H](C)NC(=O)OCC1c2cc(NC(=O)CCN3C(=O)C=CC3=O)ccc2-c2ccc(S(=O)(=O)O)cc21)C(=O)N[C@@H](CO)C(=O)NCC(=O)N[C@@H](CCC(N)=O)C(=O)N[C@@H](CC(C)C)C(=O)N[C@@H](CO)C(=O)N[C@@H](Cc1ccc(O)cc1)C(=O)N[C@H](C(=O)N[C@@H](CCCNC(=N)N)C(=O)N[C@@H](CC(=O)O)C(=O)N[C@H](C(=O)N[C@@H](CC(N)=O)C(=O)N[C@@H](CO)C(=O)N[C@@H](Cc1c[nH]c2ccccc12)C(=O)N[C@@H](CCC(N)=O)C(=O)N[C@@H](Cc1c[nH]cn1)C(=O)N[C@H](C(=O)N[C@@H](Cc1c[nH]c2ccccc12)C(=O)N[C@H](C(=O)N[C@@H](CC(N)=O)C(=O)N[C@H](C(=O)N[C@@H](CO)C(=O)N[C@H](C(=O)N[C@@H](CCC(=O)O)C(=O)N[C@@H](CC(N)=O)C(=O)O)[C@@H](C)CC)C(C)C)[C@@H](C)O)[C@@H](C)CC)C(C)C)C(C)C (some centres unmarked) [Mal-FMS-Peptide 27] (HELM PEPTIDE1{[O=C1C=CC(=O)N1CCC(=O)[*:2]].[O=C(OCC1c2cc(N[*:1])ccc2-c2ccc(S(=O)(=O)O)cc21)[*:2]].A.E.I.S.G.Q.L.S.Y.V.R.D.V.N.S.W.Q.H.I.W.T.N.V.S.I.E.N}$$$$V2.0; N-terminus and C-terminus assumed)
half-life (physchem): 8.4 h

O=C(CCN1C(=O)C=CC1=O)Nc1ccc2c(c1)C(COC(=O)ON1C(=O)CCC1=O)c1cc(S(=O)(=O)O)ccc1-2 (centres unmarked) [MAL-FMS-NHS, N-[2-(maleimido-propionylamino)-7-sulfo-fluoren-9-yl-methoxycarbonyloxy]-succinimide]
solubility [1]: > 10000 µg/mL | half-life at 1 mM ([2]; 0.1 M NaHCO3 aqueous solution, 0.1M NaHCO3 pH 8.5, room temperature, read-out: t1/2 of destruction of the maleimide moiety (converted)): 2.7 ± 0.3 h | stability of the maleimide function ([2]; pH 4 to 6, over a day or two): fully stable | stability of the maleimide function ([2]; pH 7.2): stable over a period of several hours
